From patent publication US20240376035A1, “METHOD FOR PRODUCING HESPERETIN DIHYDROCHALCONE” (SYMRISE AG, priority 2022, published 2024)

Tests used:
[1] = tested on: trained expert panel; test: Sensory descriptive analysis of ice tea prototypes in different bases (Example 15); format: in vivo; conditions: for ANOVA (sweetness factor score): 10 ppm hesperetin dihydrochalcone and/or 3 ppm hesperetin; for effect on the sweetness factor: main and interaction effects in different bases, all sign. p<0.0001
Source text: Based on an experimental design, 86 ice tea prototypes (drinkable preparations) were created that systematically varied regarding different sources of sweetness conveyed by sugars (e.g. HFCS (high fructose corn syrup), invert sugar syrup), sweeteners (Reb A, Reb D, Reb M, sucralose, acesulfame K) as well as hesperetin dihydrochalcone (HC) and hesperetin (HT) (the results are depicted in Table 2).
In order to investigate the effect of HT and HC on perceived sweetness dimensions, the 86 samples were profiled (sensory descriptive analysis) by a trained expert panel consisting of 12 panelists. The panelists were trained on an ice tea language with focus on sweetness attributes. Each attribute was scored on an unstructured line scale (10 cm) for its perceived intensity. To ensure high data reliability, every sample was tested twice. The sweetness attributes “sweetness onset”, “sweetness overall intensity” and “sweetness long-lastingness” were aggregated to a so-called sweetness factor using factor analysis (principal component analysis with VARIMAX rotation). The sweetness factor score runs from neg. infinity to positive infinity. By applying statistical modelling (JMP software: fit model: standard least squares, Analysis of Variance: DF 86, F 19.6907, p<0.0001; Rsquare 0.972) all significant main and two-way interaction effects were identified amongst which HC (p<0.0001), HT (p<0.0001) and the interaction of HC and HT (p<0.0001) were identified. These main and interaction effects were further tested in different bases (see table 2) using ANOVA, p<0.05; post hoc test: LSD.

[2] = preparations having a high content of acid such as lemonades or fruit juices; cited from earlier work
[3] = Acesulfame K Ice tea Base, 60 ppm
[4] = HFCS Ice tea Base, 2 wt. % High Fructose corn syrup
[5] = Invert Sugar Syrup Ice tea Base, 2 wt. % invert sugar syrup
[6] = Reb A Ice tea Base, 60 ppm rebaudioside A
[7] = Reb A/Reb D Ice tea Base, 60 ppm rebaudioside A/60 ppm rebaudioside D
[8] = Reb A/Reb M Ice tea Base, 60 ppm rebaudioside A/45 ppm rebaudioside M
[9] = Reb M/Reb D Ice tea Base, 45 ppm rebaudioside M/60 ppm rebaudioside D
[10] = Sucralose Ice tea Base, 100 ppm sucralose

Row | SMILES | ANOVA (sweetness factor score) [1, 3] | ANOVA (sweetness factor score) [1, 4] | ANOVA (sweetness factor score) [1, 5] | ANOVA (sweetness factor score) [1, 6] | ANOVA (sweetness factor score) [1, 7] | ANOVA (sweetness factor score) [1, 8] | ANOVA (sweetness factor score) [1, 9] | ANOVA (sweetness factor score) [1, 10] | ANOVA (sweetness factor score) ([1]; Sugar Free Ice tea Base) | effect on the sweetness factor [1] | effectivity as intensifier of the sweet flavour [2]
1 | COc1ccc(CCC(=O)c2c(O)cc(O)cc2O)cc1O [Hesperetin dihydrochalcone] | −0.1 | −0.9 | −1 | −0.5 | −0.1 | 0 | −0.3 | −0.8 | −1.3 | positive effect | –
2 | COc1ccc([C@@H]2CC(=O)c3c(O)cc(O)cc3O2)cc1O [Hesperetin, hesperetin] | −2.4 | −3.2 | −3.3 | −2.8 | −2.4 | −2.3 | −2.6 | −3.1 | −3.6 | smallest positive effect | diminished effectivity
